# Toxic doses and inconclusive results are not listed.
# Tested on: CD2F1 mice, L1210 leukemia ip, survival T/C
# Assay: NCI In Vivo Anticancer Drug Screen. Data for tumor model L1210 Leukemia (intraperitoneal) in CD2F1 (CDF1) mice
# Conditions: higher = longer survival
# Outline: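 Mice carrying a transplanted tumor received test compound or vehicle alone. The value is the measurement in the treated group divided by that in the vehicle-treated control group.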
# [1] = endpoint: mean survival time, dose: 25.0 mg/kg/injection, schedule: Q01DX009 (ip), vehicle: saline with Tween-80
# [2] = endpoint: mean survival time, dose: 100.0 mg/kg/injection, schedule: Q01DX001 (ip), vehicle: saline with Tween-80
# [3] = endpoint: mean survival time, dose: 200.0 mg/kg/injection, schedule: Q01DX001 (ip), vehicle: saline with Tween-80
# [4] = endpoint: mean survival time, dose: 75.0 mg/kg/injection, schedule: Q01DX001 (ip), vehicle: saline
# [5] = endpoint: mean survival time, dose: 150.0 mg/kg/injection, schedule: Q01DX001 (ip), vehicle: saline
# [6] = endpoint: mean survival time, dose: 300.0 mg/kg/injection, schedule: Q01DX001 (ip), vehicle: saline
# [7] = endpoint: mean survival time, dose: 100.0 mg/kg/injection, schedule: Q04DX003 (ip), vehicle: saline with Tween-80
# [8] = endpoint: mean survival time, dose: 200.0 mg/kg/injection, schedule: Q04DX003 (ip), vehicle: saline with Tween-80
# [9] = endpoint: mean survival time, dose: 400.0 mg/kg/injection, schedule: Q04DX003 (ip), vehicle: saline with Tween-80
# [10] = endpoint: mean survival time, dose: 100.0 mg/kg/injection, schedule: Q01DX001 (ip), vehicle: saline
# [11] = endpoint: mean survival time, dose: 200.0 mg/kg/injection, schedule: Q01DX001 (ip), vehicle: saline
# [12] = endpoint: mean survival time, dose: 400.0 mg/kg/injection, schedule: Q01DX001 (ip), vehicle: saline
# [13] = endpoint: mean survival time, dose: 50.0 mg/kg/injection, schedule: Q01DX009 (ip), vehicle: saline with Tween-80
# [14] = endpoint: mean survival time, dose: 100.0 mg/kg/injection, schedule: Q01DX009 (ip), vehicle: saline with Tween-80
# [15] = endpoint: mean survival time, dose: 200.0 mg/kg/injection, schedule: Q01DX009 (ip), vehicle: saline with Tween-80
# [16] = endpoint: mean survival time, dose: 400.0 mg/kg/injection, schedule: Q01DX009 (ip), vehicle: saline with Tween-80
structure (smiles),measurement,setting,value
CCN(CC)CCCNC1=C(Cl)C(=O)c2ccccc2C1=O,T/C,"endpoint: mean survival time, dose: 6.25 mg/kg/injection, schedule: Q01DX009 (ip), vehicle: saline with Tween-80",100 % of control
same,T/C,"endpoint: mean survival time, dose: 12.5 mg/kg/injection, schedule: Q01DX009 (ip), vehicle: saline with Tween-80",94 % of control
same,T/C,[1],103 % of control
O=C(/C(Br)=C/c1ccccc1[N+](=O)[O-])c1ccccc1,T/C,[2],98 % of control
same,T/C,[3],95 % of control
same,T/C,"endpoint: mean survival time, dose: 400.0 mg/kg/injection, schedule: Q01DX001 (ip), vehicle: saline with Tween-80",98 % of control
[CH3][Sn]([CH3])([Br])[CH2]CC[CH2][Sn]([CH3])([CH3])[Br],T/C,"endpoint: mean survival time, dose: 0.02 mg/kg/injection, schedule: Q01DX009 (ip), vehicle: saline",100 % of control
same,T/C,"endpoint: mean survival time, dose: 0.04 mg/kg/injection, schedule: Q01DX009 (ip), vehicle: saline",104 % of control
same,T/C,"endpoint: mean survival time, dose: 0.08 mg/kg/injection, schedule: Q01DX009 (ip), vehicle: saline",102 % of control
same,T/C,"endpoint: mean survival time, dose: 6.25 mg/kg/injection, schedule: Q01DX009 (ip), vehicle: saline",110 % of control
CC1NC1(c1ccccc1)n1ccnc1 (stereo not drawn),T/C,"endpoint: mean survival time, dose: 12.5 mg/kg/injection, schedule: Q01DX009 (ip), vehicle: water",95 % of control
same,T/C,"endpoint: mean survival time, dose: 25.0 mg/kg/injection, schedule: Q01DX009 (ip), vehicle: water",99 % of control
same,T/C,"endpoint: mean survival time, dose: 50.0 mg/kg/injection, schedule: Q01DX009 (ip), vehicle: water",99 % of control
same,T/C,"endpoint: mean survival time, dose: 100.0 mg/kg/injection, schedule: Q01DX009 (ip), vehicle: water",103 % of control
same,T/C,"endpoint: mean survival time, dose: 200.0 mg/kg/injection, schedule: Q01DX009 (ip), vehicle: water",90 % of control
CCC1(C)CC(=O)NC1=O (stereo not drawn),T/C,[4],98 % of control
same,T/C,[5],104 % of control
same,T/C,[6],96 % of control
O=C1C=C(Nc2ccc([N+](=O)[O-])cc2Cl)c2ccccc2C1=O,T/C,[4],100 % of control
same,T/C,[5],101 % of control
same,T/C,[6],112 % of control
CCCCCCC(=O)CCCCCCCCCCCCC(=O)OC,T/C,[7],95 % of control
same,T/C,[8],97 % of control
same,T/C,[9],93 % of control
COc1cc([N+](=O)[O-])ccc1C(=O)O,T/C,"endpoint: mean survival time, dose: 100.0 mg/kg/injection, schedule: Q01DX001 (ip), vehicle: Klucel (hydroxypropylcellulose) (HPC)",95 % of control
same,T/C,"endpoint: mean survival time, dose: 200.0 mg/kg/injection, schedule: Q01DX001 (ip), vehicle: Klucel (hydroxypropylcellulose) (HPC)",100 % of control
same,T/C,"endpoint: mean survival time, dose: 400.0 mg/kg/injection, schedule: Q01DX001 (ip), vehicle: Klucel (hydroxypropylcellulose) (HPC)",103 % of control
COc1cc2c(cc1OC)C1C(=CCC3c4cc(OC)c(OC)cc4CC[N+]31C)C=C2 (stereo not drawn),T/C,"endpoint: mean survival time, dose: 6.25 mg/kg/injection, schedule: Q04DX003 (ip), vehicle: saline with Tween-80",102 % of control
same,T/C,"endpoint: mean survival time, dose: 12.5 mg/kg/injection, schedule: Q04DX003 (ip), vehicle: saline with Tween-80",102 % of control
same,T/C,"endpoint: mean survival time, dose: 25.0 mg/kg/injection, schedule: Q04DX003 (ip), vehicle: saline with Tween-80",98 % of control
COc1cc(NCCCCN2C(=O)c3ccccc3C2=O)c2ncccc2c1,T/C,[7],97 % of control
same,T/C,[8],102 % of control
same,T/C,[9],96 % of control
C=CCCCCCCCCC(=O)N(CCOC)CCOC,T/C,[7],93 % of control
same,T/C,[8],94 % of control
same,T/C,[9],98 % of control
CCCC(CC)OC(=O)Nc1cccc2ccccc12 (stereo not drawn),T/C,[10],100 % of control
same,T/C,[11],102 % of control
same,T/C,[12],100 % of control
CCN(CC)c1cc(Cl)ccc1C,T/C,"endpoint: mean survival time, dose: 12.5 mg/kg/injection, schedule: Q04DX002 (ip), vehicle: saline with Tween-80",98 % of control
same,T/C,"endpoint: mean survival time, dose: 25.0 mg/kg/injection, schedule: Q04DX002 (ip), vehicle: saline with Tween-80",95 % of control
same,T/C,"endpoint: mean survival time, dose: 50.0 mg/kg/injection, schedule: Q04DX002 (ip), vehicle: saline with Tween-80",98 % of control
same,T/C,"endpoint: mean survival time, dose: 100.0 mg/kg/injection, schedule: Q01DX001 (ip), vehicle: saline sonified",101 % of control
same,T/C,"endpoint: mean survival time, dose: 200.0 mg/kg/injection, schedule: Q01DX001 (ip), vehicle: saline sonified",95 % of control
same,T/C,"endpoint: mean survival time, dose: 400.0 mg/kg/injection, schedule: Q01DX001 (ip), vehicle: saline sonified",86 % of control
O=C(Oc1ccn(C2OC(CO)C(O)C2O)c(=O)c1)C12CC3CC(CC(C3)C1)C2 (stereo not drawn),T/C,"endpoint: median survival time, dose: 20.0 mg/kg/injection, schedule: Q01DX009 (ip), vehicle: saline + Tween-80 + alcohol",153 % of control
same,T/C,"endpoint: median survival time, dose: 30.0 mg/kg/injection, schedule: Q01DX009 (ip), vehicle: saline + Tween-80 + alcohol",170 % of control
same,T/C,"endpoint: median survival time, dose: 45.0 mg/kg/injection, schedule: Q01DX009 (ip), vehicle: saline + Tween-80 + alcohol",158 % of control
COc1ccc(C=Nc2ccc3c(c2)OCO3)cc1Br,T/C,[1],98 % of control
same,T/C,[13],97 % of control
same,T/C,[14],103 % of control
O/N=C/c1ccccn1,T/C,"endpoint: mean survival time, dose: 75.0 mg/kg/injection, schedule: Q04DX003 (ip), vehicle: saline with Tween-80",96 % of control
same,T/C,"endpoint: mean survival time, dose: 150.0 mg/kg/injection, schedule: Q04DX003 (ip), vehicle: saline with Tween-80",104 % of control
same,T/C,"endpoint: mean survival time, dose: 300.0 mg/kg/injection, schedule: Q04DX003 (ip), vehicle: saline with Tween-80",98 % of control
CCOC(=N)CCCl,T/C,[7],106 % of control
same,T/C,[8],101 % of control
same,T/C,[9],97 % of control
O=C(Nc1ccccc1SC(=O)c1ccccc1)c1ccccc1,T/C,[13],91 % of control
same,T/C,[14],87 % of control
same,T/C,[15],91 % of control
Oc1ccc(/C=N\N=C\c2ccc(O)cc2)cc1,T/C,[14],86 % of control
same,T/C,[7],96 % of control
same,T/C,[15],86 % of control
same,T/C,[8],89 % of control
same,T/C,[16],91 % of control
same,T/C,[9],96 % of control
CCOC(=O)C1C(=O)NCC1c1ccccc1 (stereo not drawn),T/C,[13],106 % of control
same,T/C,[14],101 % of control
same,T/C,[15],101 % of control
COc1ccccc1C(=Nc1ccccc1)N(O)c1ccccc1,T/C,"endpoint: mean survival time, dose: 2.5 mg/kg/injection, schedule: Q01DX001 (ip), vehicle: saline with Tween-80",114 % of control
same,T/C,"endpoint: mean survival time, dose: 2.5 mg/kg/injection, schedule: Q04DX003 (ip), vehicle: saline with Tween-80",101 % of control
same,T/C,"endpoint: mean survival time, dose: 5.0 mg/kg/injection, schedule: Q01DX001 (ip), vehicle: saline with Tween-80",112 % of control
same,T/C,"endpoint: mean survival time, dose: 5.0 mg/kg/injection, schedule: Q04DX003 (ip), vehicle: saline with Tween-80",101 % of control
same,T/C,"endpoint: mean survival time, dose: 10.0 mg/kg/injection, schedule: Q01DX001 (ip), vehicle: saline with Tween-80",114 % of control
same,T/C,"endpoint: mean survival time, dose: 10.0 mg/kg/injection, schedule: Q04DX003 (ip), vehicle: saline with Tween-80",98 % of control
CC(C)(C)n1cc(C(=O)c2ccccc2)cc1-c1ccccc1,T/C,[7],91 % of control
same,T/C,[8],92 % of control
same,T/C,[9],86 % of control
O=C1C2C3C=CC(O3)C2C(=O)N1Cc1ccncc1 (stereo not drawn),T/C,[10],108 % of control
same,T/C,[11],100 % of control
same,T/C,[12],101 % of control
CC(C)Oc1ccc(N2C(=O)C(C)CNC2=S)cc1 (stereo not drawn),T/C,"endpoint: mean survival time, dose: 75.0 mg/kg/injection, schedule: Q01DX001 (ip), vehicle: other",96 % of control
same,T/C,"endpoint: mean survival time, dose: 150.0 mg/kg/injection, schedule: Q01DX001 (ip), vehicle: other",97 % of control
same,T/C,"endpoint: mean survival time, dose: 300.0 mg/kg/injection, schedule: Q01DX001 (ip), vehicle: other",96 % of control
O=C1C=C(c2ccccc2)C/C1=C\c1ccccc1,T/C,[2],87 % of control
same,T/C,[3],87 % of control
Nn1c(=O)[nH][nH]c1=O,T/C,[14],96 % of control
same,T/C,[7],93 % of control
same,T/C,[15],96 % of control
same,T/C,[8],93 % of control
same,T/C,[16],98 % of control
same,T/C,[9],98 % of control
Cc1cccc2c(=O)c3ccccc3oc12,T/C,"endpoint: mean survival time, dose: 100.0 mg/kg/injection, schedule: Q04DX003 (ip), vehicle: saline",102 % of control
same,T/C,"endpoint: mean survival time, dose: 200.0 mg/kg/injection, schedule: Q04DX003 (ip), vehicle: saline",102 % of control
same,T/C,"endpoint: mean survival time, dose: 400.0 mg/kg/injection, schedule: Q04DX003 (ip), vehicle: saline",104 % of control
O=C(O)Cc1ccc(Cl)c(Cl)c1,T/C,"endpoint: mean survival time, dose: 50.0 mg/kg/injection, schedule: Q04DX003 (ip), vehicle: other",97 % of control
same,T/C,"endpoint: mean survival time, dose: 100.0 mg/kg/injection, schedule: Q04DX003 (ip), vehicle: other",100 % of control
same,T/C,"endpoint: mean survival time, dose: 200.0 mg/kg/injection, schedule: Q04DX003 (ip), vehicle: other",96 % of control

# From PubChem BioAssay AID256 (DTP/NCI, 2004)
